Legend:
HS27 = experiment: Cytotoxicity against human HS27 cells by MTT assay; format: cell-based
[1] = Cytotoxicity against human A375P cells by MTT assay; format: functional, cell-based

COC(=O)c1ccc2c(ccn2-c2ccc(NC(=O)c3cc(N4CCOCC4)cc(C(F)(F)F)c3)cc2)n1
IC50 (HS27): > 10 µM | IC50 [1]: > 10 µM

O=C(Nc1ccc(-n2ccc3nc(C(=O)NCc4ccccc4)ccc32)cc1)c1ccc(Cl)c(C(F)(F)F)c1
IC50 (HS27): 1.5 µM | IC50 [1]: 0.7 µM

NC(=O)c1ccc2c(ccn2-c2ccc(NC(=O)Nc3ccc(Cl)c(Cl)c3)cc2)n1
IC50 (HS27): 6.6 µM | IC50 [1]: 3.2 µM

NC(=O)c1ccc2c(ccn2-c2ccc(NC(=O)Nc3ccc(Cl)c(C(F)(F)F)c3)cc2)n1
IC50 (HS27): > 10 µM | IC50 [1]: 9.9 µM

O=C(Nc1ccc(-n2ccc3nc(C(=O)NCc4ccccc4)ccc32)cc1)c1cccc(C(F)(F)F)c1
IC50 (HS27): > 10 µM | IC50 [1]: 3 µM

COC(=O)c1ccc2c(ccn2-c2ccc(NC(=O)Nc3ccc(Cl)c(Cl)c3)cc2)n1
IC50 (HS27): 2.8 µM | IC50 [1]: 3.8 µM

COC(=O)c1ccc2c(ccn2-c2ccc(NC(=O)c3ccc(Cl)c(C(F)(F)F)c3)cc2)n1
IC50 (HS27): 2.9 µM | IC50 [1]: 3 µM

O=C(Nc1ccc(-n2ccc3nc(C(=O)NCc4ccccc4)ccc32)cc1)c1cc(N2CCOCC2)cc(C(F)(F)F)c1
IC50 (HS27): > 10 µM | IC50 [1]: > 10 µM

O=C(Nc1ccc(-n2ccc3nc(C(=O)NCc4ccccc4)ccc32)cc1)c1ccc(N2CCOCC2)c(C(F)(F)F)c1
IC50 (HS27): 2.6 µM | IC50 [1]: 0.9 µM

COC(=O)c1ccc2c(ccn2-c2ccc(NC(=O)c3ccc(N4CCOCC4)c(C(F)(F)F)c3)cc2)n1
IC50 (HS27): > 10 µM | IC50 [1]: 9.8 µM

COC(=O)c1ccc2c(ccn2-c2cccc(NC(=O)c3ccc(Cl)c(C(F)(F)F)c3)c2)n1
IC50 (HS27): > 10 µM | IC50 [1]: > 10 µM

COC(=O)c1ccc2c(ccn2-c2ccc(NC(=O)Nc3ccc(Cl)c(C(F)(F)F)c3)cc2)n1
IC50 (HS27): 8.2 µM | IC50 [1]: 3.6 µM

O=C(Nc1ccc(-n2ccc3nc(C(=O)NCc4ccccc4)ccc32)cc1)Nc1cccc(Cl)c1Cl
IC50 (HS27): > 10 µM | IC50 [1]: > 10 µM

NC(=O)c1ccc2c(ccn2-c2ccc(NC(=O)Nc3cccc(Cl)c3Cl)cc2)n1
IC50 (HS27): 9.8 µM | IC50 [1]: 4.6 µM

COC(=O)c1ccc2c(ccn2-c2ccc(NC(=O)Nc3cccc(Cl)c3Cl)cc2)n1
IC50 (HS27): > 10 µM | IC50 [1]: 6.4 µM

COC(=O)c1ccc2c(ccn2-c2cccc(NC(=O)Nc3cccc(C(F)(F)F)c3)c2)n1
IC50 (HS27): > 10 µM | IC50 [1]: > 10 µM

NC(=O)c1ccc2c(ccn2-c2ccc(NC(=O)c3cccc(C(F)(F)F)c3)cc2)n1
IC50 (HS27): > 10 µM | IC50 [1]: > 10 µM

O=C(Nc1ccc(-n2ccc3nc(C(=O)NCc4ccccc4)ccc32)cc1)Nc1ccc(Cl)c(C(F)(F)F)c1
IC50 (HS27): 3 µM | IC50 [1]: 1.1 µM

O=C(Nc1ccc(-n2ccc3nc(C(=O)NCc4ccccc4)ccc32)cc1)Nc1cccc(C(F)(F)F)c1
IC50 (HS27): > 10 µM | IC50 [1]: 7.9 µM

COC(=O)c1ccc2c(ccn2-c2cccc(NC(=O)Nc3ccc(Cl)c(C(F)(F)F)c3)c2)n1
IC50 (HS27): > 10 µM | IC50 [1]: 9.5 µM

NC(=O)c1ccc2c(ccn2-c2ccc(NC(=O)c3ccc(Cl)c(C(F)(F)F)c3)cc2)n1
IC50 (HS27): > 10 µM | IC50 [1]: 8.9 µM

COC(=O)c1ccc2c(ccn2-c2ccc(NC(=O)c3cccc(C(F)(F)F)c3)cc2)n1
IC50 (HS27): 9.8 µM | IC50 [1]: 9.5 µM

COC(=O)c1ccc2c(ccn2-c2cccc(NC(=O)c3cccc(C(F)(F)F)c3)c2)n1
IC50 (HS27): > 10 µM | IC50 [1]: > 10 µM

CNC(=O)c1cc(Oc2ccc(NC(=O)Nc3ccc(Cl)c(C(F)(F)F)c3)cc2)ccn1 [SORAFENIB]
IC50 [1]: 5.6 µM

— ChEMBL document CHEMBL1153102, “Synthesis and antiproliferative activity of pyrrolo[3,2-b]pyridine derivatives against melanoma” (Bioorg Med Chem Lett, 2010)
